Data on 1 molecule can be found in ChEMBL document CHEMBL1159008, “Isolation, NMR studies, and biological activities of onopordopicrin from Centaurea sonchifolia” (J Nat Prod, 1992).

In assay [1] the test system is Candida albicans. In words: Antifungal activity against Candida albicans A-26 at 250 ug/dsik. It counts as functional, organism-based.
Assay [2] has as its system KB. In words: Cytotoxicity against human KB cells. It counts as functional, cell-based.
Assay [3] relates to Trichophyton mentagrophytes. In words: Antifungal activity against Trichophyton mentagrophytes A-23 at 250 ug/dsik. It is filed as functional, organism-based.
For assay [4], the system named is Staphylococcus aureus. The assay can be described thus: Antibacterial activity against Staphylococcus aureus ATCC 25923 by disk diffusion assay. It is filed as functional, organism-based.
For assay [5], the system named is Saccharomyces cerevisiae. The assay can be described thus: Antifungal activity against Saccharomyces cerevisiae M25 at 250 ug/dsik. It is filed as functional, organism-based.

Values after ≈ are worked out from the molar mass of the structure shown. Active and inactive are the calls of the source. The calls are words filed in the database; no cut-off is given here.

Take `C=C(CO)C(=O)O[C@H]1C/C(C)=C\CC/C(CO)=C\[C@H]2OC(=O)C(=C)[C@H]12` [ONOPORDOPICRIN]: the result in assay [1], in assay [3] and in assay [5] was inactive. The same molecule registered a 50% effective concentration (EC50) in assay [2] of 0.85 µg/mL (≈ 2.44 µM). Moreover, in assay [4], the outcome was Active.
